Source: patent US7713943B2, “Further use of protein kinase N beta” (Silence Therapeutics Aktiengesellschaft (AG), priority 2002, dated 2010)
“Also recorded” adds a separate entry of the source. Marks after values point to notes of the source that are not given here.

Assays:
endogenous PKN-beta [1] = experiment: Expression of endogenous PKN-beta after LY294002, Western blot, PC-3 cells; type: cell-based, human
Experimental: (§1) PC-3 cells were cultivated as described in example 1 herein. Said PC-3 cells are PTEN −/−. HeLa cells were obtained from the American Type Culture Collection (ATCC) and grown as described in Sternberger et al. (2002). Transfections were carried out in 10-cm plates (at 30% to 50% confluency) using Fugene 6 (Roche, Nutley, N.J.) according to the manufacturer's instructions. Cultivated cells were trypsinated and harvested following stopping the trypsin effect by medium. Both cell types, i.e. PC-3 cells and HeLa cells were treated for the indicated times with 10 μM LY294002 or DMSO, whereby DMSO was used as the solvent for LY294002 and, because of this, as negative control. The resulting extracts were fractionated by SDS-PAGE and subsequently analysed by Western-blotting. The levels of the indicated proteins such as p110, which served as a loading control, endogenous PKN-beta and phosphorylated Akt were detected using the respective antibodies. Phosphorylated Akt (P*-Akt) serves as a control for the efficacy of the LY294002-mediated treatment.

PKNbeta = experiment: Kinase activity and phosphorylation of recombinant PKN-beta from LY294002-treated HeLa cells; type: cell-based
Excerpt: Recombinant wildtype PKN-beta or derivatives of PKN-beta (as described in FIGS. 10-11) were transiently expressed in HeLa cells. Said derivatives were PKN-beta derivative TA and derivative KE as described in example 10 herein. The PKN-beta was modified in each case by a myc-tag as described above which allowed the precipitation of PKN-beta and its derivatives using an anti-Myc antibody.
For the assessment of the activity of PKN-beta an in vitro kinase activity using the immune precipitates was carried out as described above. Half of the precipitates were subjected to the in vitro kinase reaction, the second half was analyzed by Western-blotting using anti-phospho-PRK antibodies. The filter was stripped and reprobed using the anti-PKN-beta antiserum. Phospho-p70 S6 Kinase levels were analyzed from aliquots of cell lysates, that were withdrawn earlier, to confirm the efficacy of the LY294002 treatment even after only 3 h treatment. The anti-phospho p70 antibody was obtained from Cell signaling.

endogenous PKN-beta [2] = experiment: Expression of endogenous PKN-beta after LY294002, Western blot, HeLa cells; type: cell-based; details: 10 μM LY294002, 48 h
Experimental: as §1

[3] = system: MPB (myelin basic protein); experiment: In vitro kinase activity of protein kinase N beta derivatives, MPB/MBP phosphorylation; type: biochemical; parameters: key to Activity: +: active; −: inactive; !: no “hyper activation” was observed as one might have expected from comparable mutations in other kinases (Morgan and Debond, 1994); details: for Activity: MPB substrate, FIG. 9
Experimental: The respective fragments were transiently epressed in HeLa cells. Their relative expression was determined by Western-blot analysis of Hela cell extracts using an anti-PKNbeta antibody.
MPB is myelin basic protein which is a standard in vitro phosphorylation substrate.
As may be taken from FIG. 9A apart from the full-length protein kinase N beta only the kinase domain in its otherwise wildtype form is active in phosphorylating MPB.
The PKNbeta-derived molecules were immune-precipitated from the cell extracts shown in FIG. 10 by using anti-tag antibodies. The immune precipitates were washed as described (Klippel et al., 1996) and divided in two halfs. One half was incubated with 5 μg MBP (UBI) as a phosphorylation substrate, 4 mM MgCl2 and gamma ^32P-ATP in a buffered solution for 10 min at room temperature. In addition, phosphatase inhibitors and inhibitors against unspecifically acting kinases were added as in Klippel et al., 1998. Incorporation of radioactive phosphate was detected by autoradiography after separating the reaction products by 16% SDS-PAGE (FIG. 11B).

GST-GSK3 fusion protein = experiment: Non-radioactive in vitro kinase assay, anti-phospho GSK3alpha Western blot; type: biochemical; details: immune precipitates, 200 μM rATP, FIG. 11A
Experimental: The second half of the immune precipitates was incubated with 1 μg GST-GSK3 fusion protein (Cell Signaling Technology) as a phosphorylation substrate in the presence of 200 μM rATP. The reaction mixture was subsequently analyzed by 8-16% gradient SDS-PAGE and Western blotting using the anti-phospho GSK3alpha antibody (Cell Signaling Technology) (FIG. 11A).
The specificity of the in vitro phosphorylation reactions was controlled by analyzing kinase defective variants (e.g. containing mutations in the ATP binding site, see above) in parallel to active protein.
In a first step, the suitability of a non-radioactive screening formate was determined, whereby the various protein kinase N beta derivatives as already discussed in connection with example 10, were used for phosphorylating a suitable substrate. Such substrate may, for example, be MBP or a GSK3 peptide which is typically immobilised on a suitable carrier such as agarose- or sepharose beads or on plastic surfaces. In the present case and as depicted in FIG. 11A, the substrate is a GSK3-derived peptide fused to paramyosin. […] The phosphorylated substrate in the present case was detected by anti-phospho GSK3 alpha antibody (mentioned above).

[4] = LY294002 treatment, anti-phospho-PRK antibody
[5] = transient overexpression in HeLa cells

Question: What does the source list for `O=c1cc(N2CCOCC2)oc2c(-c3ccccc3)cccc12` [LY294002, 2-(4-morpholinyl)8-phenylchromone]?
Answer: endogenous PKNbeta expression (protein level) (endogenous PKN-beta [1]; 10 μM LY294002, 24 h): visible reduction; endogenous PKNbeta expression (protein level) (endogenous PKN-beta [1]; 10 μM LY294002, 48 h): further reduced; kinase activity of PKNbeta, phosphorylation of MBP (PKNbeta; 3 h of LY294002 treatment): visible; kinase activity of PKNbeta, phosphorylation of MBP (PKNbeta; 24 h of LY294002 treatment): almost completely inhibited; kinase activity of PKNbeta, phosphorylation of MBP (PKNbeta; LY294002 treatment of HeLa cells prior to lysis, FIG. 13): strong inhibition; phosphorylation of PKNbeta at position 718 (PKNbeta; [4]): compromised; phosphorylation status of PKN-beta derivative KE (PKNbeta; [4]): to some extent affected; endogenous PKNbeta expression (protein level) (endogenous PKN-beta [2]): reduced amounts can be detected

Question: With “Kinase domain comprising amino acids 535-889: protein kinase N beta derivative, kinase domain comprising amino acids 535-889” as the molecule, how does the “phosphorylation of MBP, 32P incorporation” value ([3]; immune precipitates, gamma 32P-ATP, autoradiography, FIG. 11B) read?
Answer: show activity

Question: And the “phosphorylating MPB (FIG. 9A)” value [3, 5]?
Answer: active

Question: What about the Activity [3, 5] of the same molecule?
Answer: +*

Question: And the “phosphorylation of GSK3-derived substrate” value (GST-GSK3 fusion protein)?
Answer: suitable to phosphorylate the substrate; also recorded: show activity

Question: For “TA718: kinase domain derivative, threonine at position 718 changed to alanine”, which Activity [3, 5] is on record?
Answer: −*

Question: Which Activity [3, 5] does the source give for “TD718: kinase domain derivative, threonine at position 718 changed to aspartic acid” here?
Answer: −*!

Question: Which Activity [3, 5] does the source give for “TE718: kinase domain derivative, threonine at position 718 changed to glutamic acid” here?
Answer: −*!
